In EP4635500A1, “THERAPEUTIC AGENT FOR BACTERIAL INFECTION” (Sumitomo Pharma Co., Ltd., priority 2022, dated 2024):

Experiments:
Assay type in all cases: cell-based
Enterobacterales = assay: MIC, broth microdilution, CDC/FDA Antibiotic Resistance Isolate Bank (Example 7, Tables 8, 11, 12)
53 CRE and CPE strains = assay: MICrange, MIC50, MIC80, MIC90 for 53 bacterial isolates (Example 5, Table 5); settings: 53 bacterial isolates
[1] = tested on: Metallo-β-lactamase producing strains (N = 27); assay: MIC50/MIC90 for carbapenemase-producing isolates (Example 5, Table 6); design: MIC50: unit not given here
[2] = 154 strains of Enterobacterales
[3] = carbapenemase-producing Enterobacterales, Metallo-β-lactamase (N = 47)
[4] = carbapenemase-producing Enterobacterales, Serine carbapenemase (N=61)

Substance: colistin
- MIC50 (Enterobacterales; [2]): 0.5 µg/mL
- MIC80 (Enterobacterales; [2]): 8 µg/mL
- MIC90 (Enterobacterales; [2]): >64 µg/mL
- MIC (Enterobacterales; Citrobacter fremidii, KUB No. 5613, AR Bank # 116): 1 µg/mL
- MIC (Enterobacterales; Enterobacter aerogenes, KUB No. 5559, AR Bank # 62): 8 µg/mL
- MIC (Enterobacterales; Enterobacter aerogenes, KUB No. 5571, AR Bank # 74): 0.5 µg/mL
- MIC (Enterobacterales; Enterobacter cloacae KUB No. 5792, AR Bank #448): 0.5 µg/mL
- MIC (Enterobacterales; Enterobacter cloacae KUB No. 5807, AR Bank #501): 0.5 µg/mL
- MIC (Enterobacterales; Enterobacter cloacae KUB No. 5808, AR Bank #502): 0.5 µg/mL
- MIC (Enterobacterales; Enterobacter cloacae complex, KUB No. 5661, AR Bank # 164): 0.5 µg/mL
- MIC (Enterobacterales; Enterobacter cloacae group, KUB No. 5629, AR Bank # 132): 1 µg/mL
- MIC (Enterobacterales; Enterobacter cloacae, KUB No. 5529, AR Bank# 32): 0.5 µg/mL
- MIC (Enterobacterales; Enterobacter cloacae, KUB No. 5535, AR Bank# 38): 0.5 µg/mL
- MIC (Enterobacterales; Enterobacter cloacae, KUB No. 5557, AR Bank# 60): 0.5 µg/mL
- MIC (Enterobacterales; Enterobacter cloacae, KUB No. 5562, AR Bank # 65): 0.5 µg/mL
- MIC (Enterobacterales; Enterobacter cloacae, KUB No. 5570, AR Bank # 73): 8 µg/mL
- MIC (Enterobacterales; Enterobacter cloacae, KUB No. 5590, AR Bank # 93): 1 µg/mL
- MIC (Enterobacterales; Enterobacter cloacae, KUB No. 5660, AR Bank # 163): 8 µg/mL
- MIC (Enterobacterales; Enterobacter cloacae, KUB No. 5761, AR Bank # 365): 1 µg/mL
- MIC (Enterobacterales; Enterobacter cloacae, KUB No. 5763, AR Bank # 367): 0.5 µg/mL
- MIC (Enterobacterales; Enterobacter cloacae, KUB No. 5778, AR Bank # 432): 0.5 µg/mL
- MIC (Enterobacterales; Escherichia coli, KUB No. 5545, AR Bank# 48): 0.5 µg/mL
- MIC (Enterobacterales; Escherichia coli, KUB No. 5552, AR Bank# 55): 0.5 µg/mL
- MIC (Enterobacterales; Escherichia coli, KUB No. 5555, AR Bank# 58): 0.5 µg/mL
- MIC (Enterobacterales; Escherichia coli, KUB No. 5564, AR Bank # 67): 1 µg/mL
- MIC (Enterobacterales; Escherichia coli, KUB No. 5578, AR Bank # 81): 0.5 µg/mL
- MIC (Enterobacterales; Escherichia coli, KUB No. 5581, AR Bank # 84): 0.5 µg/mL
- MIC (Enterobacterales; Escherichia coli, KUB No. 5586, AR Bank # 89): 0.5 µg/mL
- MIC (Enterobacterales; Escherichia coli, KUB No. 5601, AR Bank # 104): 0.5 µg/mL
- MIC (Enterobacterales; Escherichia coli, KUB No. 5611, AR Bank # 114): 0.5 µg/mL
- MIC (Enterobacterales; Escherichia coli, KUB No. 5615, AR Bank # 118): 1 µg/mL
- MIC (Enterobacterales; Escherichia coli, KUB No. 5616, AR Bank # 119): 0.5 µg/mL
- MIC (Enterobacterales; Escherichia coli, KUB No. 5764, AR Bank # 368): 0.5 µg/mL
- MIC (Enterobacterales; Escherichia coli, KUB No. 5765, AR Bank # 369): 0.5 µg/mL
- MIC (Enterobacterales; Escherichia coli, KUB No. 5768, AR Bank # 372): 0.5 µg/mL
- MIC (Enterobacterales; Escherichia coli, KUB No. 5769, AR Bank # 373): 0.5 µg/mL
- MIC (Enterobacterales; Escherichia coli, KUB No. 5770, AR Bank # 374): 0.5 µg/mL
- MIC (Enterobacterales; Escherichia coli, KUB No. 5780, AR Bank # 434): 0.5 µg/mL
- MIC (Enterobacterales; Escherichia, KUB No. 57, AR Bank # 436 (row cut off)): 0.2 µg/mL
- MIC (Enterobacterales; Klebsiella oxytoca, KUB No. 5568, AR Bank # 71): 0.5 µg/mL
- MIC (Enterobacterales; Klebsiella oxytoca, KUB No. 5776, AR Bank # 380): 0.5 µg/mL
- MIC (Enterobacterales; Klebsiella ozaenae, KUB No. 5548, AR Bank# 51): 0.5 µg/mL
- MIC (Enterobacterales; Klebsiella ozaenae, KUB No. 5593, AR Bank # 96): 1 µg/mL
- MIC (Enterobacterales; Klebsiella pneumoniae KUB No. 5784, AR Bank #438): 0.5 µg/mL
- MIC (Enterobacterales; Klebsiella pneumoniae KUB No. 5797, AR Bank #453): 0.5 µg/mL
- MIC (Enterobacterales; Klebsiella pneumoniae KUB No. 5809, AR Bank #504): 1 µg/mL
- MIC (Enterobacterales; Klebsiella pneumoniae KUB No. 5810, AR Bank #505): 1 µg/mL
- MIC (Enterobacterales; Klebsiella pneumoniae KUB No. 5811, AR Bank #506): 0.5 µg/mL
- MIC (Enterobacterales; Klebsiella pneumoniae KUB No. 5812, AR Bank #507): 8 µg/mL
- MIC (Enterobacterales; Klebsiella pneumoniae KUB No. 5827, AR Bank #522): 32 µg/mL
- MIC (Enterobacterales; Klebsiella pneumoniae KUB No. 5828, AR Bank #523): 4 µg/mL
- MIC (Enterobacterales; Klebsiella pneumoniae KUB No. 5829, AR Bank #524): 2 µg/mL
- MIC (Enterobacterales; Klebsiella pneumoniae KUB No. 5830, AR Bank #525): 16 µg/mL
- MIC (Enterobacterales; Klebsiella pneumoniae, KUB No. 55, AR Bank# 47): 64 µg/mL
- MIC (Enterobacterales; Klebsiella pneumoniae, KUB No. 5531, AR Bank# 34): 0.5 µg/mL
- MIC (Enterobacterales; Klebsiella pneumoniae, KUB No. 5536, AR Bank# 39): 0.5 µg/mL
- MIC (Enterobacterales; Klebsiella pneumoniae, KUB No. 5537, AR Bank# 40): 4 µg/mL
- MIC (Enterobacterales; Klebsiella pneumoniae, KUB No. 5543, AR Bank# 46): 4 µg/mL
- MIC (Enterobacterales; Klebsiella pneumoniae, KUB No. 5546, AR Bank# 49): 0.5 µg/mL
- MIC (Enterobacterales; Klebsiella pneumoniae, KUB No. 5563, AR Bank # 66): 0.5 µg/mL
- MIC (Enterobacterales; Klebsiella pneumoniae, KUB No. 5565, AR Bank # 68): 1 µg/mL
- MIC (Enterobacterales; Klebsiella pneumoniae, KUB No. 5572, AR Bank # 75): 0.5 µg/mL
- MIC (Enterobacterales; Klebsiella pneumoniae, KUB No. 5577, AR Bank # 80): 0.5 µg/mL
- MIC (Enterobacterales; Klebsiella pneumoniae, KUB No. 5584, AR Bank # 87): 64 µg/mL
- MIC (Enterobacterales; Klebsiella pneumoniae, KUB No. 5594, AR Bank # 97): 8 µg/mL
- MIC (Enterobacterales; Klebsiella pneumoniae, KUB No. 5603, AR Bank # 106): 32 µg/mL
- MIC (Enterobacterales; Klebsiella pneumoniae, KUB No. 5604, AR Bank # 107): 0.5 µg/mL
- MIC (Enterobacterales; Klebsiella pneumoniae, KUB No. 5606, AR Bank # 109): 32 µg/mL
- MIC (Enterobacterales; Klebsiella pneumoniae, KUB No. 5609, AR Bank # 112): 0.5 µg/mL
- MIC (Enterobacterales; Klebsiella pneumoniae, KUB No. 5610, AR Bank # 113): 0.5 µg/mL
- MIC (Enterobacterales; Klebsiella pneumoniae, KUB No. 5612, AR Bank # 115): 1 µg/mL
- MIC (Enterobacterales; Klebsiella pneumoniae, KUB No. 5614, AR Bank # 117): 1 µg/mL
- MIC (Enterobacterales; Klebsiella pneumoniae, KUB No. 5617, AR Bank # 120): 1 µg/mL
- MIC (Enterobacterales; Klebsiella pneumoniae, KUB No. 5622, AR Bank # 125): 16 µg/mL
- MIC (Enterobacterales; Klebsiella pneumoniae, KUB No. 5626, AR Bank # 129): 0.5 µg/mL
- MIC (Enterobacterales; Klebsiella pneumoniae, KUB No. 5757, AR Bank # 361): 0.5 µg/mL
- MIC (Enterobacterales; Klebsiella pneumoniae, KUB No. 5759, AR Bank # 363): 0.5 µg/mL
- MIC (Enterobacterales; Klebsiella pneumoniae, KUB No. 5760, AR Bank # 364): 64 µg/mL
- MIC (Enterobacterales; Klebsiella pneumoniae, KUB No. 5772, AR Bank # 376): 0.5 µg/mL
- MIC (Enterobacterales; Proteus mirabilis, KUB No. 5775, AR Bank # 379): 64 µg/mL
- MIC (Enterobacterales; Raoultella ornithinolvtica, KUB No. 5631, AR Bank # 134): 8 µg/mL
- MIC (Enterobacterales; Salmonella Senftenberg, KUB No. 5624, AR Bank # 127): 0.5 µg/mL
- MIC50 (Enterobacterales; [3]): 0.5 µg/mL
- MIC90 (Enterobacterales; [3]): 8 µg/mL
- MIC50 (Enterobacterales; [4]): 0.5 µg/mL
- MIC90 (Enterobacterales; [4]): >64 µg/mL
- MIC90 (Enterobacterales; metallo-β-lactamase-producing strains of Enterobacterales): 8 µg/mL
- MIC50 (53 CRE and CPE strains): 0.5 µg/mL
- MIC80 (53 CRE and CPE strains): 1 µg/mL
- MIC90 (53 CRE and CPE strains): 32 µg/mL
- MIC50 ([1]; Metallo-β-lactamase (N = 27): IMP-1 (12), IMP-6 (3), IMP-34 (1), NDM-1 (8), NDM-6 (1), VIM-1 (2)): 0.25
- MIC90 ([1]; metallo-β-lactamase-producing strains, combination: Compound A at a fixed concentration of 4 µg/mL): 1 µg/mL
